Measurements published in patent US11420966B2 (ACLARIS THERAPEUTICS, INC., priority 2019, dated 2022).
Where a name gives a salt, the structure may show the parent alone.

What was measured:
[1] = target: JAK1 (Homo sapiens (Human), UniProt P23458); experiment: JAK1 enzyme activity assay (Thermo Fisher SelectScreen, Z-lyte); assay type: biochemical; settings: read-out: JAK1 Inhibition IC50
Protocol: (§1) JAK1, JAK2, JAK3, and Tyk-2 Enzyme Activity Assays
(§2) The inhibitory potency of candidate compounds of JAK1, JAK2, and Tyk-2 was done at Thermo Fisher Scientific in their Selectscreen using a Z-lyte assay. Following are the assay details for each enzyme.
JAK: The 2×JAK-enzyme/Tyr 06 mixture is prepared in 50 mM HEPES pH 6.5, 0.01% BRIJ-35, 10 mM MgCl2, 1 mM EGTA, 0.02% NaN3. The final 10 μL of the Kinase Reaction consists of 21.2-91.5 ng JAK and 2 M Tyr 06 in 50 mM HEPES pH 7.0, 0.01% BRIJ-35, 10 mM MgCl2, 1 mM EGTA, 0.01% NaN3. After the one hour Kinase Reaction incubation, 5 μL of a 1:128 dilution of Development Reagent is added.
(§3) Data reduction for JAK1, JAK2 and TYK2 is done the same, independent of the enzyme run. In summary, background signal is defined in the absence of enzyme and uninhibited signal is defined in the presence of vehicle (2% DMSO) alone. Compounds were evaluated in an 11 point dose-response ranging from […] to 0.34 nM. IC50 values of compounds are determined using a 4 parameter logistical fit of emission ratio as a function of the concentration of compound.

[2] = target: JAK2 (Homo sapiens (Human), UniProt O60674); experiment: JAK2 enzyme activity assay (Thermo Fisher SelectScreen, Z-lyte); assay type: biochemical; settings: read-out: JAK2 Inhibition IC50
Sequence of JAK2 (O60674 whole entry): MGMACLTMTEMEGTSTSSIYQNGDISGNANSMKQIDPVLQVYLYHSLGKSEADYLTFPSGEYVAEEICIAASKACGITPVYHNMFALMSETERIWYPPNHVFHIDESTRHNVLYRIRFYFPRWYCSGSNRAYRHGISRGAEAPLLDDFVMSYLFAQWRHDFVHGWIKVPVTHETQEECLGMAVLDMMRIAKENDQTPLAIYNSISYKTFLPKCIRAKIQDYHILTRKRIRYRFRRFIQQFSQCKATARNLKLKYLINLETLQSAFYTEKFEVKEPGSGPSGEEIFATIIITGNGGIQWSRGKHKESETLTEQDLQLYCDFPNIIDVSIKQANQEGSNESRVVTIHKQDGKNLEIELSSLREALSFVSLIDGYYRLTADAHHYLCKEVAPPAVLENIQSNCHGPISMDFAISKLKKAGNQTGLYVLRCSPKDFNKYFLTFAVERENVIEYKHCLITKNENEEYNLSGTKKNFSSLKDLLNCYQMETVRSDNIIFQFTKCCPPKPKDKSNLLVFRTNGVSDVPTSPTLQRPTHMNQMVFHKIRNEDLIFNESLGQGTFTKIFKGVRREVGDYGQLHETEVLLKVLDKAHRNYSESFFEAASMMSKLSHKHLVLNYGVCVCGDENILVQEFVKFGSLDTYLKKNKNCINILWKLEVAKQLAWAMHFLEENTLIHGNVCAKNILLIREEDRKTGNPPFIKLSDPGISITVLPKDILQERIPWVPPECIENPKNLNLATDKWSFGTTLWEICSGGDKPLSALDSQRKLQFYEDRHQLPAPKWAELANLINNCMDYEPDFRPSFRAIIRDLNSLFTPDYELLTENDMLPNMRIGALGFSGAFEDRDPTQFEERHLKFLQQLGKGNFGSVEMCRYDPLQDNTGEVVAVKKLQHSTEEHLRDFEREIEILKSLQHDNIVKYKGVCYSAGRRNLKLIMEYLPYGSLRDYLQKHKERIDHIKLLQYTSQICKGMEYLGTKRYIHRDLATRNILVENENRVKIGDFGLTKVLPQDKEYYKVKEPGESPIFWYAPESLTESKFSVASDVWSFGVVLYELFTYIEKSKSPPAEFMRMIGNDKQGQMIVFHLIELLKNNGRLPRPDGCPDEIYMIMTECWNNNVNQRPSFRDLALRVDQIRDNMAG
Protocol: as §1, §2
JAK2: The 2×JAK2/Tyr 06 mixture is prepared in 50 mM HEPES pH 7.5, 0.01% BRIJ-35, 10 mM MgCl2, 1 mM EGTA. The final 10 μL Kinase Reaction consists of 0.12-0.5 ng JAK2 and 2 M Tyr 06 in 50 mM HEPES pH 7.5, 0.01% BRIJ-35, 10 mM MgCl2, 1 mM EGTA. After the one hour Kinase Reaction incubation, 5 μL of a 1:128 dilution of Development Reagent A is added.
as §3

[3] = target: JAK3 (a.a. 781-1124) (Homo sapiens (Human), UniProt P52333); experiment: JAK3 enzyme activity assay (SRCtide phosphorylation, Caliper); assay type: biochemical; settings: 1 uM ATP; read-out: JAK3 Inhibition IC50
Sequence of JAK3 (a.a. 781-1124) (P52333 781-1124): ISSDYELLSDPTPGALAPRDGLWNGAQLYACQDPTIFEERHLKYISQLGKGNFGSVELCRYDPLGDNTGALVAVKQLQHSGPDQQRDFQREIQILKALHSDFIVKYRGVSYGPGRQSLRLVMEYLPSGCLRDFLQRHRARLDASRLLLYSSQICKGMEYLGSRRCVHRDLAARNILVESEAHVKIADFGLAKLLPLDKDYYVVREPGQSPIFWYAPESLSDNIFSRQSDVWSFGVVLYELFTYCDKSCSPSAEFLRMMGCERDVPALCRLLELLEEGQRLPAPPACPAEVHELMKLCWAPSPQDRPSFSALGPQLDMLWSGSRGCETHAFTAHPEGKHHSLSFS
Protocol: as §1
Kinase reactions were run in a 384-well Greiner plate with 2% final DMSO concentration under the buffer conditions of 20 mM HEPES, pH 7.5, 10 mM MgCl2, 0.01% BSA, and 0.0005% Tween-20. The kinase reaction components were 2.5 nM JAK3, 1 μM SRCtide peptide and 1 uM ATP. Examples were tested in dose-response starting at 2 M (11 concentrations, 3-fold serial dilution, duplicate reactions). The reactions were incubated at room temperature for 40 minutes, then stopped by adding a 1:1 volume of 30 mM EDTA in 20 mM HEPES, pH 7.5 (15 mM EDTA final). After the reaction was stopped, the phosphorylated and unphosphorylated peptides were separated and quantified using a Caliper LC3000/EZ-Reader system and HTS Well Analyzer Software (Caliper, A PerkinElmer Company, Hopkinton, Mass.). GraFit (Erithacus Software Ltd., Horley, U.K.) was used to calculate inhibitor potency by fitting dose-response data to the 4-parameter logistical IC50 equation.

[4] = target: Tyk-2 (Homo sapiens (Human), UniProt P29597); experiment: Tyk-2 enzyme activity assay (Thermo Fisher SelectScreen, Z-lyte); assay type: biochemical; settings: read-out: Tyk-2 Inhibition IC50
Sequence of Tyk-2 (P29597 whole entry): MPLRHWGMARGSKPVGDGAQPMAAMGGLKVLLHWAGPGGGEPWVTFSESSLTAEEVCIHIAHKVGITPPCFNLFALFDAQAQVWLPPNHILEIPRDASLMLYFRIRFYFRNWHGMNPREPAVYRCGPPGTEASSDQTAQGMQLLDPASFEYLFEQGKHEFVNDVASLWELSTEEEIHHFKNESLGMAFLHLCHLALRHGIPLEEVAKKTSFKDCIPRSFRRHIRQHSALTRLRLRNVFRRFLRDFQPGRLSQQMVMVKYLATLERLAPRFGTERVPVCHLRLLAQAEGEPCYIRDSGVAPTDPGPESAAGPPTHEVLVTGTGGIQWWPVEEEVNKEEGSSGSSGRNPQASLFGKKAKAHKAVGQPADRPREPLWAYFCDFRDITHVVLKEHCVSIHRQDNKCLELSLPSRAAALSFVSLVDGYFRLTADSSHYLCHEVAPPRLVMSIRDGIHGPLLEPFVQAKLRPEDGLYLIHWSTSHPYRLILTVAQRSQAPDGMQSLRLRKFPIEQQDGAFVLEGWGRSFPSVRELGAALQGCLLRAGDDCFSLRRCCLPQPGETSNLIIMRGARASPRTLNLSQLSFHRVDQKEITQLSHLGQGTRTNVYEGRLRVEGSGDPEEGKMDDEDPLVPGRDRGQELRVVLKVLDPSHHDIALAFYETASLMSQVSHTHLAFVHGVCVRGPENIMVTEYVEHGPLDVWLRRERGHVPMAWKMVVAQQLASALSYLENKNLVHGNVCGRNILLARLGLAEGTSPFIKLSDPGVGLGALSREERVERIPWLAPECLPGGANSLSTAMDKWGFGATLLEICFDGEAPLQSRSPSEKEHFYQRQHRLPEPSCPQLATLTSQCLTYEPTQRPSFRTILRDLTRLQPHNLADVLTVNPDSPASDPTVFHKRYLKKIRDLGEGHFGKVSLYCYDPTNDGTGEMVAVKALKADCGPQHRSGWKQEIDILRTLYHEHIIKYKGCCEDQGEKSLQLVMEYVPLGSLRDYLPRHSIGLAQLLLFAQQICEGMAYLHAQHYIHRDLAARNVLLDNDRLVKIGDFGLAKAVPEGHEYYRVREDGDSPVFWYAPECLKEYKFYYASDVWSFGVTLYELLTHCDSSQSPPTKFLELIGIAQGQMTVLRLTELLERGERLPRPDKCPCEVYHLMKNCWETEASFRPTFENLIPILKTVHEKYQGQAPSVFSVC
Protocol: as §1, §2
TYK2: The 2×TYK2/Tyr 03 mixture is prepared in 50 mM HEPES pH 6.5, 0.01% BRIJ-35, 10 mM MgCl2, 1 mM EGTA, 0.02% NaN3. The final 10 μL Kinase Reaction consists of 3.75-15 ng TYK2 and 2 M Tyr 03 in 50 mM HEPES pH 7.0, 0.01% BRIJ-35, 10 mM MgCl2, 1 mM EGTA, 0.01% NaN3. After the one hour KinaseReaction incubation, 5 μL of a 1:4096 dilution of Development Reagent A is added.
as §3

[5] = tested on: IL-2 stimulated STAT5 phosphorylation on Tyr694 (JAK1/3); experiment: JAK1/3 cellular target modulation: IL-2 stimulated phospho-STAT5 in PBMC; assay type: cell-based; settings: human PBMC, IL-2 25 ng/ml; read-out: IL2-STAT5 IC50
Source text: (§4) JAK Cellular Target Modulation Assays
(§5) Target modulation was based upon the ability of a compound to inhibit JAK isoform specific phosphorylation of selected substrates. IL-2 stimulated STAT5 phosphorylation on Tyr694 was used to assess JAK1/3 compound selectivity. GM-CSF stimulated STAT5 phosphorylation on Tyr694 was used to assess JAK2 compound selectivity. IFNγ stimulated STAT1 phosphorylation on Tyr701 was used to assess JAK1/2 compound selectivity. IL-12 stimulated STAT4 phosphorylation on Tyr693 was used to assess JAK2/TYK2 compound selectivity. For all four assays, human PBMC from frozen stocks were thawed, pelleted, resuspended in complete media (90% RPMI, 10% heat inactivated FBS, 10 mM HEPES, 47 μM 2-ME, pen/strep) and placed in wells of a 96 well V-bottom plate at 200,000 per well in 120 μl complete media. Compounds were added as 15 μl per well of 10× working stock solutions in complete media with 1% DMSO (or medium with 1% DMSO for controls) and placed on a plate shaker in a 37° C. incubator with 5% CO2 for 1 hour with gentle shaking (setting of 3). Stimulation used the addition of soluble cytokines. For the JAK1/3 phospho-STAT5 assay, 15 μl of 10× working stock recombinant human IL-2 was added to a final concentration of 25 ng/ml. For the JAK2 phospho-STAT5 assay, 15 μl of 10× working stock recombinant human GM-CSF was added to a final concentration of 5 ng/ml. For the JAK1/2 phospho-STAT1 assay, 15 μl of 10× working stock of recombinant human IFNγ was added to a final concentration of 10 ng/ml. For the JAK2/TYK2 phospho-STAT4 assay, 15 μl of 10× working stock of recombinant human IL-12 was added to a final concentration of 1.7 ng/ml. Plates were then placed back on the plate shaker in the incubator for an additional 5, 5, 10, and 25 minutes respectively upon which the plates were removed from the incubator, sealed with a plate sealer and the cells pelleted at 400×g for 5 minutes. After pelleting, the media was removed by aspiration and the cells were lysed in assay specific cell lysis buffer. The levels of phospho-STATS were determined using a Phospho (Tyr694) STAT5a,b Whole Cell Lysate kit from Meso Scale Discovery. Levels of phospho-STAT1 were determined using a CST-PathScan Phospho-STAT1 (Tyr701) Sandwich ELISA kit. Levels of phospho-STAT4 were determined using a Phospho-STAT4 (Tyr693) Whole Cell Lysate kit from Meso Scale Discovery.

[6] = tested on: IFNγ stimulated STAT1 phosphorylation on Tyr701 (JAK1/2); experiment: JAK1/2 cellular target modulation: IFNγ stimulated phospho-STAT1 in PBMC; assay type: cell-based; settings: human PBMC, IFNγ 10 ng/ml; read-out: Infγ-STAT1 IC50
Source text: as §4, §5

[7] = tested on: IL-12 stimulated STAT4 phosphorylation on Tyr693 (JAK2/TYK2); experiment: JAK2/TYK2 cellular target modulation: IL-12 stimulated phospho-STAT4 in PBMC; assay type: cell-based; settings: human PBMC, IL-12 1.7 ng/ml; read-out: IL12-STAT4 IC50
Source text: as §4, §5

Sequence of JAK1 (P23458 whole entry): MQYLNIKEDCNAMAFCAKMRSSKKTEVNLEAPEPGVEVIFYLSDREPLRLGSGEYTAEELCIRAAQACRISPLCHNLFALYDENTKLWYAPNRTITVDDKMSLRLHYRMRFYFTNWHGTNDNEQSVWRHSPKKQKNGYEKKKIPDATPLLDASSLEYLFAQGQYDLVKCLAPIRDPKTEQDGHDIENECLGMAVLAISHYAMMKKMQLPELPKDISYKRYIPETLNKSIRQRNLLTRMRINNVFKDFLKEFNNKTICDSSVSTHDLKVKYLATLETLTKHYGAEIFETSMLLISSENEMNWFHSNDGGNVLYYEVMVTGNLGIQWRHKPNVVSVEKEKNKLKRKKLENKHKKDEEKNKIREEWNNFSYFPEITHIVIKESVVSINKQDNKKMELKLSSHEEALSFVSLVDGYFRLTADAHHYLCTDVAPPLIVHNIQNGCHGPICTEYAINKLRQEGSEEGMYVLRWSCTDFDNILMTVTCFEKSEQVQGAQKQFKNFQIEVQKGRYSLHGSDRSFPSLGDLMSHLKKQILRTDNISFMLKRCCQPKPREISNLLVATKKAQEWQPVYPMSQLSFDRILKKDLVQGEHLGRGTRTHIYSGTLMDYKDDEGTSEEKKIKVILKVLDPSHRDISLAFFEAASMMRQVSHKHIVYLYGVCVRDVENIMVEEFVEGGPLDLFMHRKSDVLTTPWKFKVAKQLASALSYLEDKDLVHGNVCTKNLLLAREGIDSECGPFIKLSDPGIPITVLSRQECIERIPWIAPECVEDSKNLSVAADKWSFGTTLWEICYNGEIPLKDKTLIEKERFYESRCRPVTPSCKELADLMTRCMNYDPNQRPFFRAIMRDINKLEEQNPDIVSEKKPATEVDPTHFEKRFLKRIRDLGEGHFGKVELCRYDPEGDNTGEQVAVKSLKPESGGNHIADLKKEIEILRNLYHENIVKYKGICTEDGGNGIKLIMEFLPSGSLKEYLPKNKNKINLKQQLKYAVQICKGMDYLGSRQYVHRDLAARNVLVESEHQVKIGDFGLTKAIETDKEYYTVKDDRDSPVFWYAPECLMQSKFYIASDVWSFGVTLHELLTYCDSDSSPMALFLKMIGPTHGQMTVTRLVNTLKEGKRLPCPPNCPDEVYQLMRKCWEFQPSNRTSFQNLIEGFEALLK

| SMILES | IC50 [1] [µM] | IC50 [2] [µM] | IC50 [3] [µM] | IC50 [4] [µM] | IC50 [5] [µM] | IC50 [6] [µM] | IC50 [7] [µM] |
| --- | --- | --- | --- | --- | --- | --- | --- |
| CNC(=O)c1cnc(-c2cnc3[nH]ccc3c2N[C@@H]2CCCN(C(=O)CC#N)C2)o1 [Example 39, (R)-2-(4-((1-(2-cyanoacetyl)piperidin-3-yl)amino)-1H-pyrrolo[2,3-b]pyridin-5-yl)-N-methyloxazole-5-carboxamide] | 0.01 to 0.1 | ≤ 0.01 | ≤ 0.01 | 0.01 to 0.1 | > 1 | > 1 |  |
| CNC(=O)c1cnc(-c2cnc3[nH]ccc3c2N[C@@H]2CCCN(C(=O)CC#N)C2)s1 [Example 53, (R)-2-(4-((1-(2-cyanoacetyl)piperidin-3-yl)amino)-1H-pyrrolo[2,3-b]pyridin-5-yl)-N-methylthiazole-5-carboxamide] | ≤ 0.01 | ≤ 0.01 | ≤ 0.01 | ≤ 0.01 | ≤ 0.1 | ≤ 0.1 |  |
| N#CCC(=O)N1CCC[C@@H](Nc2c(-c3cscn3)cnc3[nH]ccc23)C1 [Example 1, (R)-3-oxo-3-(3-((5-(thiazol-4-yl)-1H-pyrrolo[2,3-b]pyridin-4-yl)amino)piperidin-1-yl)propanenitrile] | 0.01 to 0.1 | 0.01 to 0.1 | 0.01 to 0.1 | 0.01 to 0.1 | 0.1 to 1 | 0.1 to 1 |  |
| CNC(=O)c1csc(-c2cnc3[nH]ccc3c2N[C@@H]2CCCN(C(=O)CC#N)C2)n1 [Example 35, (R)-2-(4-((1-(2-cyanoacetyl)piperidin-3-yl)amino)-1H-pyrrolo[2,3-b]pyridin-5-yl)-N-methylthiazole-4-carboxamide] | ≤ 0.01 | 0.01 to 0.1 | ≤ 0.01 | 0.01 to 0.1 | 0.1 to 1 |  | > 1 |
| N#CCC(=O)N1CCC[C@@H](Nc2c(-c3nnc[nH]3)cnc3[nH]ccc23)C1 [Example 11, (R)-3-(3-((5-(4H-1,2,4-triazol-3-yl)-1H-pyrrolo[2,3-b]pyridin-4-yl)amino)piperidin-1-yl)-3-oxopropanenitrile] | 0.01 to 0.1 | 0.01 to 0.1 | 0.01 to 0.1 | 0.1 to 1 | > 1 | > 1 |  |
| O[C@H]1CC[C@@H](Nc2c(-c3ccccn3)cnc3[nH]ccc23)C1 [Example 12, (1S,3R)-3-((5-(pyridin-2-yl)-1H-pyrrolo[2,3-b]pyridin-4-yl)amino)cyclopentan-1-ol] | 0.1 to 1 | 0.1 to 1 | 0.01 to 0.1 | 0.1 to 1 | 0.1 to 1 | > 1 |  |
| CS(=O)(=O)c1cccc(-c2cnc3[nH]ccc3c2N[C@@H]2CCCN(C(=O)CC#N)C2)c1 [Example 59, (R)-3-(3-((5-(3-(methylsulfonyl)phenyl)-1H-pyrrolo[2,3-b]pyridin-4-yl)amino)piperidin-1-yl)-3-oxopropanenitrile] | ≤ 0.01 | 0.1 to 1 | 0.1 to 1 | > 1 | 0.1 to 1 | > 1 |  |
| CNCCOc1cccc(-c2cnc3[nH]ccc3c2N[C@@H]2CCCN(C(=O)CC#N)C2)n1 [Example 58, (R)-3-(3-((5-(6-(2-(methylamino)ethoxy)pyridin-2-yl)-1H-pyrrolo[2,3-b]pyridin-4-yl)amino)piperidin-1-yl)-3-oxopropanenitrile hydrochloride] | ≤ 0.01 | 0.1 to 1 | 0.01 to 0.1 | 0.1 to 1 | 0.1 to 1 | > 1 |  |

Next, values leading:

| IC50 [1] [µM] | IC50 [2] [µM] | IC50 [3] [µM] | IC50 [4] [µM] | IC50 [5] [µM] | IC50 [6] [µM] | IC50 [7] [µM] | SMILES |
| --- | --- | --- | --- | --- | --- | --- | --- |
| ≤ 0.01 | ≤ 0.01 | ≤ 0.01 | 0.01 to 0.1 | 0.1 to 1 | 0.1 to 1 | > 1 | N#CCC(=O)N1CCC[C@@H](Nc2c(-c3ccnc(N)n3)cnc3[nH]ccc23)C1 [Example 51, (R)-3-(3-((5-(2-aminopyrimidin-4-yl)-1H-pyrrolo[2,3-b]pyridin-4-yl)amino)piperidin-1-yl)-3-oxopropanenitrile] |
| ≤ 0.01 | 0.01 to 0.1 | ≤ 0.01 | 0.01 to 0.1 | ≤ 0.1 | 0.1 to 1 | > 1 | Cc1cnc(-c2cnc3[nH]ccc3c2N[C@@H]2CCCN(CCC#N)C2)o1 [Example 37, (R)-3-(3-((5-(5-methyloxazol-2-yl)-1H-pyrrolo[2,3-b]pyridin-4-yl)amino)piperidin-1-yl)propanenitrile] |
| ≤ 0.01 | 0.01 to 0.1 | 0.01 to 0.1 | 0.01 to 0.1 | ≤ 0.1 | 0.1 to 1 |  | N#CCC(=O)N1CCC[C@@H](Nc2c(C#N)cnc3[nH]ccc23)C1 [Example 25, (R)-4-((1-(2-cyanoacetyl)piperidin-3-yl)amino)-1H-pyrrolo[2,3-b]pyridine-5-carbonitrile] |
| ≤ 0.01 | 0.01 to 0.1 | ≤ 0.01 | 0.01 to 0.1 | 0.1 to 1 | > 1 |  | N#CCC(=O)N1CCC[C@@H](Nc2c(-c3nc(C(N)=O)co3)cnc3[nH]ccc23)C1 [Example 14, (R)-2-(4-((1-(2-cyanoacetyl)piperidin-3-yl)amino)-1H-pyrrolo[2,3-b]pyridin-5-yl)oxazole-4-carboxamide] |
